≈ marks a conversion by molar mass, not a printed value. One block for each molecule: values may come before it. Calls of active or inactive are those of the source. The calls are words filed in the database; no cut-off is given here.
Experiments:
Staphylococcus aureus [1] = experiment: Antibacterial activity against methicillin-resistant Staphylococcus aureus 2658 RCMB after 20 hrs by broth microdilution method; format: functional
Rattus norvegicus [2] = experiment: Cmax in Sprague-Dawley rat at 25 mg/kg administered via oral gavage measured over 24 hrs by LC-MS/MS analysis; format: ADME, organism-based; design: dose 25 mg/kg, route oral; conditions: in vivo
Staphylococcus aureus [3] = experiment: Antibacterial activity against Staphylococcus aureus USA400 NRS123 clinical isolate after 20 hrs by broth microdilution method; format: functional; conditions: USA400 NRS123, 20 h
[4] = Ratio of non cytotoxic concentration against human HRT18 cells to MIC for methicillin-resistant Staphylococcus aureus 2658 RCMB; format: toxicity, cell-based
[5] = Half life in Sprague-Dawley rat at 25 mg/kg administered via oral gavage measured over 24 hrs by LC-MS/MS analysis; format: ADME, organism-based; conditions: in vivo
Acinetobacter baumannii = experiment: Antibacterial activity against Acinetobacter baumannii ATCC 19606 after 20 hrs by broth microdilution method; format: functional; conditions: ATCC 19606 = CIP 70.34 = JCM 6841, 20 h
BHK-21 [6] = experiment: Cytotoxicity against BHK21 cells assessed as decrease in cell viability after 6 hrs by MTT assay; format: cell-based; conditions: Mesocricetus auratus, BHK-21, 6 h
Staphylococcus aureus [7] = experiment: Antibacterial activity against Staphylococcus aureus VRS11a clinical isolate after 20 hrs by broth microdilution method; format: functional
Staphylococcus aureus [8] = experiment: Antibacterial activity against Staphylococcus aureus VRS10 clinical isolate after 20 hrs by broth microdilution method; format: functional; conditions: VRS10, 20 h
Enterobacter cloacae = experiment: Antibacterial activity against Enterobacter cloacae BAA-1154 after 20 hrs by broth microdilution method; format: functional; conditions: BAA-1154, 20 h
Enterococcus faecalis = experiment: Antibacterial activity against vancomycin-resistant Enterococcus faecalis ATCC 51299 after 20 hrs by broth microdilution method; format: functional; conditions: ATCC 51299, 20 h
Rattus norvegicus [9] = experiment: Oral bioavailability in Sprague-Dawley rat at 25 mg/kg administered via gavage measured over 24 hrs by LC-MS/MS analysis; format: ADME, organism-based; conditions: in vivo
[10] = AUClast in Sprague-Dawley rat at 25 mg/kg administered via oral gavage measured over 24 hrs by LC-MS/MS analysis; format: ADME, organism-based; design: dose 25 mg/kg, route oral, time 0 - last; conditions: in vivo
Staphylococcus aureus [11] = experiment: Potency index, ratio of vancomycin MIC to test compound MIC for Staphylococcus aureus VRS11a clinical isolate; format: functional
HRT-18 cell line = experiment: Cytotoxicity against human HRT18 cells assessed as decrease in cell viability at 512 ug/ml after 2 hrs by MTS assay; format: cell-based; conditions: hrt-18, 2 h
Pseudomonas aeruginosa = experiment: Antibacterial activity against Pseudomonas aeruginosa ATCC 15442 after 20 hrs by broth microdilution method; format: functional; conditions: ATCC 15442, 20 h
Klebsiella pneumoniae = experiment: Antibacterial activity against Klebsiella pneumoniae BAA-1706 after 20 hrs by broth microdilution method; format: functional; conditions: BAA-1706, 20 h
Enterococcus faecium = experiment: Antibacterial activity against vancomycin-resistant Enterococcus faecium ATCC 700221 after 20 hrs by broth microdilution method; format: functional; conditions: ATCC 700221, 20 h
Staphylococcus aureus [12] = experiment: Bactericidal activity against methicillin-resistant Staphylococcus aureus USA300 at 4 times MIC after 12 hrs by time kill assay; format: functional
[13] = Ratio of Cmax in Sprague-Dawley rat at 25 mg/kg administered via oral gavage to MIC for methicillin-resistant Staphylococcus aureus 2658 RCMB; format: ADME, organism-based; conditions: in vivo
Staphylococcus aureus [14] = experiment: Antibacterial activity against Staphylococcus aureus RN4220 NRS107 clinical isolate after 20 hrs by broth microdilution method; format: functional; conditions: RN4220 NRS107, 20 h
BHK-21 [15] = experiment: Cytotoxicity against BHK21 cells assessed as decrease in cell viability after 24 hrs by MTT assay; format: cell-based; conditions: Mesocricetus auratus, BHK-21, 24 h
Staphylococcus aureus [16] = experiment: Antibacterial activity against Staphylococcus aureus VRS12 clinical isolate after 20 hrs by broth microdilution method; format: functional; conditions: VRS12, 20 h
Staphylococcus aureus [17] = experiment: Antibacterial activity against methicillin-resistant Staphylococcus aureus USA300 NRS384 at sub MIC after 14 passages over 2 weeks by broth microdilution method; format: functional, organism-based
[18] = Aqueous solubility in PBS after 2 hrs; format: physicochemical; conditions: buffer
Rattus norvegicus [19] = experiment: Tmax in Sprague-Dawley rat at 25 mg/kg administered via oral gavage measured over 24 hrs by LC-MS/MS analysis; format: ADME, organism-based; conditions: in vivo
Staphylococcus aureus [20] = experiment: Bactericidal activity against methicillin-resistant Staphylococcus aureus USA300 at 4 times MIC after 24 hrs by time kill assay; format: functional, organism-based
Staphylococcus aureus [21] = experiment: Potency index, ratio of vancomycin MIC to test compound MIC for Staphylococcus aureus VRS12 clinical isolate; format: functional
Staphylococcus aureus [22] = experiment: Antibacterial activity against Staphylococcus aureus NRS119 clinical isolate after 20 hrs by broth microdilution method; format: functional; conditions: NRS119, 20 h
Staphylococcus aureus [23] = experiment: Antibacterial activity against Staphylococcus aureus NRS119 clinical isolate after 18 to 20 hrs by broth microdilution method; format: functional
Staphylococcus aureus [24] = experiment: Antibacterial activity against Staphylococcus aureus RN4220 NRS107 clinical isolate after 18 to 20 hrs by broth microdilution method; format: functional

SMILES: CCCCNc1nnc(-c2sc(-c3ccc(-c4ccccc4)cc3)nc2C)o1
MIC (Staphylococcus aureus [1]): > 25 µg/mL

SMILES: Cc1nc(-c2ccc(-c3ccccc3)cc2)sc1-c1nnc(NC(=N)N2CCN(C)CC2)o1
Cmax (Rattus norvegicus [2]): 6222.1 ng/mL | MIC (Staphylococcus aureus [3]): 16 µg/mL (≈ 34.8 µM) | selectivity ratio [4]: > 400 | half-life [5]: 2.04 h | MIC (Acinetobacter baumannii): > 64 µg/mL | IC50 (BHK-21 [6]): 398 µg/mL (≈ 866 µM) | MIC (Staphylococcus aureus [7]): 16 µg/mL (≈ 34.8 µM) | MIC (Staphylococcus aureus [8]): 16 µg/mL (≈ 34.8 µM) | MIC (Enterobacter cloacae): > 64 µg/mL | MIC (Enterococcus faecalis): > 64 µg/mL | F (Rattus norvegicus [9]): 42.5% | AUC(0-t) at 24 h [10]: 83200 ng·h/mL | Ratio (Staphylococcus aureus [11]): 30 | Activity (HRT-18 cell line): Non-Toxic | MIC (Pseudomonas aeruginosa): > 64 µg/mL | MIC (Klebsiella pneumoniae): > 64 µg/mL | MIC (Enterococcus faecium): > 64 µg/mL | Activity (Staphylococcus aureus [12]): 3 deltalog10CFU/ml | Ratio [13]: 6 | MIC (Staphylococcus aureus [14]): 8 µg/mL (≈ 17.4 µM) | IC50 (BHK-21 [15]): 45.7 µg/mL (≈ 99.4 µM) | MIC (Staphylococcus aureus [16]): 16 µg/mL (≈ 34.8 µM) | Activity (Staphylococcus aureus [17]): Active | solubility [18]: 104 µM (≈ 47.8 µg/mL) | Tmax (Rattus norvegicus [19]): 1.7 h | Activity (Staphylococcus aureus [20]): Active | Ratio (Staphylococcus aureus [21]): 30 | MIC (Staphylococcus aureus [1]): 1.17 µg/mL (≈ 2.55 µM)

SMILES: CCN(CC)c1nnc(-c2sc(-c3ccc(-c4ccccc4)cc3)nc2C)o1
MIC (Staphylococcus aureus [1]): > 25 µg/mL

SMILES: Cc1nc(-c2ccc(-c3ccccc3)cc2)sc1-c1nnc(NC(=N)c2cccnc2)o1
MIC (Staphylococcus aureus [1]): > 25 µg/mL

SMILES: Cc1nc(-c2ccc(-c3ccccc3)cc2)sc1-c1nnc(N2CCC2)o1
MIC (Staphylococcus aureus [1]): > 25 µg/mL

SMILES: CC(=O)NC[C@H]1CN(c2ccc(N3CCOCC3)c(F)c2)C(=O)O1 [LINEZOLID]
MIC (Staphylococcus aureus [22]): > 128 µg/mL | MIC (Acinetobacter baumannii): > 64 µg/mL | MIC (Enterobacter cloacae): > 64 µg/mL | MIC (Pseudomonas aeruginosa): > 64 µg/mL | MIC (Klebsiella pneumoniae): > 64 µg/mL | MIC (Enterococcus faecium): 1 µg/mL (≈ 2.96 µM) | MIC (Staphylococcus aureus [23]): > 128 µg/mL

SMILES: Cc1nc(-c2ccc(-c3ccccc3)cc2)sc1-c1nnc(N2CCOCC2)o1
MIC (Staphylococcus aureus [1]): 12.5 µg/mL (≈ 30.9 µM)

MIC (Staphylococcus aureus [24]): 1020 µg/mL (≈ 2050 µM)
SMILES: C/C(=C\C(=O)OCCCCCCCCC(=O)O)C[C@@H]1OC[C@H](C[C@@H]2O[C@H]2[C@@H](C)[C@H](C)O)[C@@H](O)[C@H]1O [MUPIROCIN]

F (Rattus norvegicus [9]): 0%
SMILES: CCCCc1ccc(-c2nc(C)c(/C(C)=N/NC(=N)N)s2)cc1

SMILES: Cc1nc(-c2ccc(-c3ccccc3)cc2)sc1-c1nnc(N(C)C)o1
MIC (Staphylococcus aureus [1]): > 25 µg/mL

SMILES: Cc1nc(-c2ccc(-c3ccccc3)cc2)sc1-c1nnc(N2CC(O)C2)o1
solubility [18]: 150 µM (≈ 58.6 µg/mL) | MIC (Staphylococcus aureus [1]): 3.12 µg/mL (≈ 7.99 µM)

SMILES: Cc1nc(-c2ccc(-c3ccccc3)cc2)sc1-c1nnc(NC2CCCCC2)o1
MIC (Staphylococcus aureus [1]): > 25 µg/mL

SMILES: Cc1nc(-c2ccc(-c3ccccc3)cc2)sc1-c1nnc(NC(=N)N2CCCCC2)o1
MIC (Staphylococcus aureus [1]): > 25 µg/mL

SMILES: Cc1nc(-c2ccc(-c3ccccc3)cc2)sc1-c1nnc(NC(=N)N2CCCC2)o1
MIC (Staphylococcus aureus [1]): 12.5 µg/mL (≈ 29 µM)

SMILES: Cc1nc(-c2ccc(-c3ccccc3)cc2)sc1-c1nnc(NC(=N)N)o1
IC50 (BHK-21 [6]): > 1000 µg/mL | IC50 (BHK-21 [15]): 45 µg/mL (≈ 119 µM) | solubility [18]: 128 µM (≈ 48.2 µg/mL) | MIC (Staphylococcus aureus [1]): 1.56 µg/mL (≈ 4.14 µM)

Source: ChEMBL document CHEMBL4138160, “Biphenylthiazole antibiotics with an oxadiazole linker: An approach to improve physicochemical properties and oral bioavailability” (Eur J Med Chem, 2018)
